Reference: ChEMBL document CHEMBL5370544, “Design, synthesis, and biological evaluation of 1-styrenyl isoquinoline derivatives for anti-hepatocellular carcinoma activity and effect on mitochondria” (Eur J Med Chem, 2023)

Legend:
SK-HEP1 = test: Antiproliferative activity against human SK-HEP1 cells assessed as inhibition of cell growth measured after 72 hrs by MTT assay; format: functional, cell-based; conditions: SK-HEP1, 72 h
HCCLM9 = test: Antiproliferative activity against human HCCLM9 cells assessed as inhibition of cell growth measured after 72 hrs by MTT assay; format: functional, cell-based; conditions: HCCLM9, 72 h
Huh-7 [1] = test: Antiproliferative activity against human Huh-7 cells assessed as inhibition of cell growth measured after 72 hrs by MTT assay; format: functional, cell-based; conditions: Huh-7, 72 h
HepG2 = test: Antiproliferative activity against human HepG2 cells assessed as inhibition of cell growth measured after 72 hrs by MTT assay; format: functional, cell-based; conditions: HepG2, 72 h
Huh-7 [2] = test: Antitumor activity against human Huh-7 cells xenografted in BALB/c mouse assessed as tumor growth inhibition at 15 mg/kg, ip qd measured after 14 days; format: functional; conditions: Huh-7, 336 h, time 14 day, read-out: TGI

| Structure (SMILES) | IC50 (SK-HEP1) [µM] | IC50 (HCCLM9) [µM] | IC50 (Huh-7 [1]) [µM] | IC50 (HepG2) [µM] | inhibition in vivo at 15 mg/kg (Huh-7 [2]) [%] |
| --- | --- | --- | --- | --- | --- |
| Oc1ccc(/C=C/c2nccc3ccccc23)cc1 | > 40 | 29.9 | 11.9 | > 40 | – |
| Oc1cccc(/C=C/c2nccc3ccccc23)c1 | > 40 | > 40 | 24.7 | 20.4 | – |
| C(=C\c1nccc2ccccc12)/c1ccc(-c2ccccc2)cc1 | > 40 | > 40 | > 40 | > 40 | – |
| N#Cc1cccc(/C=C/c2nccc3ccccc23)c1 | > 40 | > 40 | 12.2 | > 40 | – |
| CNC(=O)c1cc(Oc2ccc(NC(=O)Nc3ccc(Cl)c(C(F)(F)F)c3)cc2)ccn1 [SORAFENIB] | 8.63 | 9.21 | 9.48 | 9.03 | 77 |
| COc1ccccc1/C=C/c1nccc2ccccc12 | 37.6 | 37.6 | 23.9 | 26.8 | – |
| Nc1cccc(/C=C/c2nccc3ccccc23)c1 | > 40 | 30.9 | 14.1 | 8.66 | – |
| C#Cc1ccccc1/C=C/c1nccc2ccccc12 | 39.2 | > 40 | 24.8 | 31 | – |
| Oc1ccccc1/C=C/c1nccc2ccccc12 | 17.1 | 13.6 | 6.07 | 8.92 | – |
| C#Cc1ccc(/C=C/c2nccc3ccccc23)cc1 | > 40 | > 40 | 12.9 | > 40 | – |
| CC(=O)Oc1ccc(/C=C/c2nccc3ccccc23)cc1 | 23.4 | 35.1 | 15.4 | 20.6 | – |
| Oc1ccc(/C=C/c2cc(O)cc(O)c2)cc1 [RESVERATROL] | > 40 | > 40 | > 40 | > 40 | – |
| Nc1ccccc1/C=C/c1nccc2ccccc12 | 26.1 | > 40 | > 40 | 25.3 | – |
| O=c1[nH]cc(F)c(=O)[nH]1 [FLUOROURACIL] | > 40 | 27.2 | 8.98 | 29.4 | – |
| COc1ccc(/C=C/c2nccc3ccccc23)cc1 | > 40 | > 40 | 15.8 | 18.1 | – |
| CC(=O)Oc1cccc(/C=C/c2nccc3ccccc23)c1 | 14.3 | 28.6 | 11.6 | 14.5 | – |
| Nc1ccc(/C=C/c2nccc3ccccc23)cc1 | > 40 | 16.1 | 17.3 | 23.4 | – |
| N#Cc1ccccc1/C=C/c1nccc2ccccc12 | 11.7 | 10.8 | 4.52 | 17.4 | – |
| COc1cccc(/C=C/c2nccc3ccccc23)c1 | 33 | 20.4 | 15.1 | 10.8 | – |
| N#Cc1ccc(/C=C/c2nccc3ccccc23)cc1 | > 40 | 30.7 | 5.61 | > 40 | – |
